Measured values reported in patent US20190054054A1, “Methods reducing or preventing oxidation of high density lipoprotein (HDL)” (Amarin Pharmaceuticals Ireland Limited, priority 2017, published 2019).

Experiments:
human LDL = test: Copper-induced oxidation of unfractionated LDL, TBARS (Example 7); format: biochemical; details: for effect on unfractionated LDL oxidation as compared to vehicle-treated controls: all agents at 10 μM, 1 hour (FIG. 25)
Method: An experiment to study the antioxidant effect of EPA in LDL and small dense […] performed. […] Fenofibrate, gemfibrozil, and niacin were purchased from Sigma-Aldrich. […] Vitamin E was also incubated with sample aliquots as a positive control.

[1] = Membrane cholesterol domain peak intensity, x-ray diffraction of POPC/cholesterol membranes (Example 9); details: 1.5:1 C/P mole ratio; for % change Vs control / Relative Cholesterol Domain Preak Intensity: drug-to-phospholipid mole ratio 1:30; for Relative Cholesterol Domain Preak Intensity: POPC and cholesterol
Method: The fatty acid stock solutions were stored at −20° C. until use. […] Samples were shell-dried under nitrogen gas and placed under vacuum for 3 hours to remove residual solvent at room temperature. After desiccation, each sample was resuspended in saline buffer (0.5 mM HEPES, 154 mM NaCl, pH 7.3) to yield a final phospholipid concentration of 2.5 mg/mL. Lipid suspensions were then vortexed for 3 minutes at ambient temperature to form MLVs. Membrane lipid vesicles were oriented for x-ray diffraction analysis as described by others (e.g., Herbette et al., Biophys. […] Briefly, a 100 μL aliquot of each MLV preparation (containing 250 μg MLV) was transferred to a Lucite® sedimentation cell fitted with an aluminum foil substrate designed to collect MLVs into a single membrane pellet upon centrifugation. […] After centrifugal orientation, sample supernatants were aspirated and aluminum foil substrates, each supporting a single membrane pellet, were removed from the sedimentation cells. Sample pellets were dried for 5-10 minutes at ambient conditions, mounted onto curved glass supports, and placed in hermetically-sealed, brass or glass containers (for immediate analysis or temporary storage, respectively). All x-ray diffraction experiments were conducted at 20° C., 74% relative humidity. The latter was established by exposing membrane samples to saturated solutions of L-(+)-tartaric acid (K2C4H4O6.½H2O) for at least 1 hour prior to experimental analysis. Oriented membrane samples were aligned at grazing incidence with respect to a collimated, mono-chromatic CuKα x-ray beam (Kα1 and Kα2 unresolved; λ=1.54 Å) produced by a Rigaku Rotaflex RU-200, high-brilliance microfocus generator (Rigaku-MSC, The Woodlands, Tex.) as previously described (Mason et al., Biophys. J., vol. 55(4), pages 769-778 (1989)). The samples were initially subjected to x-ray diffraction analysis at least 12 hours after formation of the membrane pellets and retested for up to several days. Analytical x-rays were generated by electron bombardment of a rotating copper anode and are filtered through a thin nickel foil to provide monochromatic radiation (λ=1.54 Å). Collimation of the x-ray beam was achieved using a single Franks mirror. Diffraction data were collected on a one-dimensional, position-sensitive electron detector (Hecus X-ray Systems, Graz, Austria) at a sample-to-detector distance of 150 mm from the sample site. The d-space for any given membrane multi bilayer is a measurement of the unit cell periodicity of the membrane lipid bilayer (e.g., the distance from the center of one lipid bilayer to the next including surface hydration), and is calculated from Bragg's Law, h λ=2 d sin θ, where h is the diffraction order, λ is the wavelength of the x-ray radiation (1.54 Å), d is the membrane lipid bilayer unit cell periodicity, and θ is the Bragg angle equal to one-half the angle between the incident beam and scattered beam. […] Routines written in Origin 8.6 (OriginLab Corporation, Northampton, Mass.) were used to determine total peak area (associated with all diffraction peaks in a given pattern) against which the second-order cholesterol domain peak was normalized. The raw data collected in this study was normalized using internal. Data were presented as mean+S.E.M. for (N) separate samples or treatment groups. Differences between groups were analyzed using the two-tailed, Student's t-test (for comparisons between only two groups) or ANOVA followed by Dunnett or Student-Newman-Keuls multiple comparisons post-hoc analysis (for comparisons between three or more groups). Alpha error was set to 0.05 in this study.

[2] = EPA to phospholipid mole ratio 1:60
[3] = EPA to phospholipid mole ratio 1:90

| SMILES | effect on unfractionated LDL oxidation, dose dependence (human LDL; 1 hour) | inhibition of TBARS formation compared to vehicle-treated control (human LDL; highest treatment concentration, 1 hour) [%] | reduction in cholesterol domain peaks as compared to vehicle treatment ([1]; 1:30) [%] | % Change (vs. Control) [1, 2] [%] | Relative Cholesterol Domain Peak Intensity [1, 2] | % Change (vs. Control) [1, 3] [%] | Relative Cholesterol Domain Peak Intensity [1, 3] | % change Vs control [1] [%] | Relative Cholesterol Domain Preak Intensity [1] | effect on unfractionated LDL oxidation as compared to vehicle-treated controls (human LDL) | effect on cholesterol domains (in words) ([1]; 1:30) | % change Vs control ([1]; listed as Gemfib) [%] | Relative Cholesterol Domain Preak Intensity ([1]; listed as Gemfib) | % change Vs control ([1]; listed as Niacin) [%] | Relative Cholesterol Domain Preak Intensity ([1]; listed as Niacin) |
| --- | --- | --- | --- | --- | --- | --- | --- | --- | --- | --- | --- | --- | --- | --- | --- |
| CC/C=C\C/C=C\C/C=C\C/C=C\C/C=C\CCCC(=O)O [EPA, cis-5,8,11,14,17-eicosapentaenoic acid] | significantly and reproducibly inhibited unfractionated LDL oxidation in a dose-dependent manner | > 90 | 65 | −30.2 ± 27.9 | 29.5 ± 10.9 | −15.0 ± 12.6 | 36.0 ± 3.1 | −65.5 ± 17.1 | 14.6±5 |  |  |  |  |  |  |
| Cc1ccc(C)c(OCCCC(C)(C)C(=O)O)c1 [gemfibrozil] |  |  |  |  |  |  |  | 11 | 46.9±12.6 | no significant effect on unfractionated LDL oxidation | no significant changes in cholesterol domain size | 10.9 ± 43.3 | 46.9 ± 12.6 |  |  |
| O=C(O)c1cccnc1 [niacin, nicotinic acid] |  |  |  |  |  |  |  | −35 | 27.5±12.2 | no significant effect on unfractionated LDL oxidation | no significant changes in cholesterol domain size |  |  | −35.0 ± 30.8 | 27.5 ± 12.2 |
| Cc1c(C)c2c(c(C)c1O)CC[C@@](C)(CCC[C@H](C)CCC[C@H](C)CCCC(C)C)O2 [vitamin E, α-tocopherol] |  |  |  |  |  |  |  |  |  | no significant effect on unfractionated LDL oxidation |  |  |  |  |  |
